Measured values as given in US9988343B2, “Inhibitors of histone deacetylase” (Dana-Farber Cancer Institute, Inc., priority 2013, dated 2018).
pIC50: −log10 of the molar value. Read-outs that look alike come from different tables or passages of the source.

Key:
[1] = test system: MM.1S cells; experiment: Immunoblot of caspase-3 and PARP cleavage; assay type: cell-based, human; conditions: 15 μM (FIG. 6E)
[2] = test system: MM.1S xenograft; experiment: Subcutaneous MM.1S murine xenograft model; assay type: in vivo; conditions: SCID mice
Protocol: CB17 SCID mice (48-54 days old) were purchased from Charles River Laboratories (Wilmington, Mass.). All animal studies were conducted according to protocols approved by the Animal Ethics Committee of the Dana-Farber Cancer Institute. After irradiation (200cGy), mice were subcutaneously injected with 5×10^6 MM.1S cells in the right flank. […] Tumor size was measured every three days, and tumor volume was calculated with the formula: V=0.5 (a×b^2), where “a” is the long diameter of the tumor and “b” is the short diameter of the tumor. Mice were sacrificed when the tumor reached 2 cm in length or 2 cm^3 volume, or if mice appeared moribund to prevent unnecessary morbidity. Survival was evaluated from the first day of the treatment until death. […] These SCID mice were subcutaneously injected with 5×10^6 MM.1S cells. […] Tumor volume was calculated from caliper measurements twice weekly, and data represent mean±SD (FIG. 9A).

[3] = test system: STAT3 acetylation in MM.1S cells; experiment: Immunoprecipitation/immunoblot of STAT3 acetylation; assay type: cell-based, human; conditions: 20 μM, 18 hours (FIG. 6H)
Protocol: Whole-cell lysates were incubated with anti-STAT3, -JAK2, and -green fluorescent protein (GFP) Abs for 2 hours at 4° C., and then incubated with Protein A/G PLUS-Agarose® (Santa Cruz Biotechnology) overnight at 4° C. Anti-GFP Ab served as a control. Immune complexes were analyzed by immunoblotting with anti-STAT3, -JAK2, -acetylated-Lysine, and -phosphorylated-tyrosine Abs. […] Whole cell lysates were immunoprecipitated with anti-STAT3 Ab. Immunoprecipitates were then subjected to SDS-PAGE and immunoblotted with anti-Ac-K and -STAT3 Abs.

[4] = test system: pSTAT3 (Tyr705); experiment: Immunoblot of STAT3 phosphorylation in MM cells; assay type: cell-based, human; conditions: MM.1S, 10 and 20 μM, 10 hours, then IL-6 10 ng/mL 4 hours (FIG. 6G)
Protocol: MM cells were harvested and lysed using sodium dodecyl sulfate-polyacrylamide gel electrophoresis (SDS-PAGE) sample buffer containing 60 mM Tris-HCl, pH 6.8, 2% SDS, 10% glycerol, 0.005% bromophenol blue, 5 mM ethylenediaminetetraacetic acid, 5 mM NaF, 2 mM […], 1 mM phenylmethylsulfonyl fluoride (PMSF), 5 μg/mL leupeptin, and 5 μg/mL aprotinin; and then heated at 100° C. for 5 min. After the determination of protein concentration using DC protein assay (Bio-Rad, Hercules, Calif.), β-mercaptoethanol (β-ME) was added to the whole-cell lysates to a 2% final β-ME concentration. The whole-cell lysates were subjected to SDS-PAGE, transferred to nitrocellulose membranes (Bio-Rad, Hercules, Calif.) or polyvinylidene fluoride membranes (Millipore, Billerica, Mass.), and immunoblotted with anti-histone H3, -HDAC1, -HDAC2, -HDAC3, -Acetyl-histone H2A (Lysine 5) (Ac-H2AK5), -Acetyl-histone H2B (lysine 5) (Ac-H2 BK5), -Acetyl-histone H3 (lysine 9) (Ac-H3K9), -Acetyl-histone H4 (lysine 8) (Ac-H4K8), -glyceraldehyde-3-phosphate dehydrogenase (GAPDH), -poly (ADP-ribose) polymerase (PARP), -caspase-3, -caspase-8, -caspase-9, -Signal transducers and activators of transcription 3 (STAT3), -phospho-STAT3 (pSTAT3) (tyrosine 705), -pSTAT3 (serine 727), -p21, -Janus kinase 2 (JAK2), -acetylated-Lysine (Ac-K), and anti-phosphorylated-tyrosine antibodies (Abs; Cell Signaling Technology, Beverly, Mass.).
MM.1S, U266, and INA6 cells were cultured with DMSO control or LBH589 (50 and 100 nM) for 8 h.
MM.1S cells pretreated with or without 50 nM LBH589 for 8 hours were then treated with IL-6 (10 ng/mL) or BMSC culture supernatants (#1 and #2) for 15 minutes. Whole cell lysates were subjected to immunoblotting with anti-pSTAT3 (Tyr705) and STAT3 Abs.
In addition, INA-6 cells were cultured with DMSO control, LBH589 (50 nM), TSA (1 μM) or SAHA (2 μM) for 8 hours. Whole cell lysates were subjected to immunoblotting with anti-pSTAT3 (Tyr705), STAT3, and GAPDH Abs.
Whole cell lysates were subjected to immunoblotting with anti-pSTAT3 (Tyr705), -STAT3, -pERK1/2 (Thr202/204), and -ERK1/2 Abs (FIG. 6G).
See, e.g., Hideshima et al. Blood. 2006, 107:4053-4062. Since bortezomib upregulates activated STAT3 in head and neck squamous cell carcinoma (see, e.g., Li et al. Mol Cancer Ther 2009. 8:2211-2220), experiments were conducted to test whether bortezomib enhances p-STAT3 in MM cells. RPMI8226 cells were infected with Luc, HDAC1 (sh1), HDAC2 (sh1) or HDAC3 (sh1) shRNAs and then treated with or without bortezomib (5 nM) for 6 hours. Whole cell lysates were subjected to immunoblotting with anti-STAT3, -pSTAT3 (Tyr705), -pERK1/2 (Thr202/204) and -ERK1/2 Abs.

[5] = target: HDAC2 (Homo sapiens, UniProt Q92769); experiment: HDAC2 inhibitory activity (IC50); assay type: biochemical
Protocol: (§1) HDAC inhibitor compounds designed and synthesized in accordance with the present invention were tested for their inhibitor activity against several different HDAC isoforms.

[6] = test system: primary tumor cells from MM patients; experiment: MTT growth assay in primary tumor cells from MM patients; assay type: cell-based, human; conditions: 30 μM, 72 hours, MTT (FIG. 6B)
Protocol: BM specimens were obtained from patients with MM, and mononuclear cells (MNCs) were separated by Ficoll-Hipaque density sedimentation. Primary CD138+ plasma cells from MM patients were obtained using negative selection, as in previous studies. […] CD138-BMMNCs were used to establish long-term BMSC cultures, as previously described. […] Peripheral blood mononuclear cells were collected from healthy volunteers to obtain mononuclear cells (PBMCs). All procedures were performed with IRB-approved (Dana-Farber Cancer Institute) protocols and informed consent, and in accordance with the Declaration of Helsinki protocol. […] Cell growth was then assessed by MTT assay. Data represents mean±SD from triplicates cultures (FIG. 6B). […] Cell growth was assessed by MTT assay. The data represents mean±SD from triplicate cultures (FIG. 6C).

[7] = test system: MM cell lines; experiment: Cell growth inhibition assay (MTT) in MM cell lines; assay type: cell-based, human; conditions: MM.1S, RPMI8226, U266, OPM1, H929; 1.875-30 μM, 48 h and 72 h, MTT (FIG. 6A)
Protocol: To measure proliferation of MM cells, the rate of DNA synthesis was measured by ^3[H]-thymidine (Perkin-Elmer) uptake.
The growth inhibitory effect of Merck60 (HDACL, 2 inhibitor previously reported as compound #60 by Method et al. Bioorg. Med. Chem. Lett. 2008. 18(3):973-8) versus MS275 (HDAC1, 2, 3 inhibitor) was examined in MM cell lines using MTT assay. MM cells were cultured with Merck60 (left panel) or MS275 (right panel) for 48 hours. Cell growth was assessed by MTT assay. All experiments were performed 3 times in quadruplicate. Data represent mean±SD.
Cell growth was assessed by MTT assay. All experiments were performed 3 times in quadruplicate. Data represent mean±SD.

[8] = target: HDAC3 (Homo sapiens, UniProt O15379); experiment: HDAC3 inhibitory activity (IC50); assay type: biochemical
Sequence of HDAC3 (O15379 whole entry): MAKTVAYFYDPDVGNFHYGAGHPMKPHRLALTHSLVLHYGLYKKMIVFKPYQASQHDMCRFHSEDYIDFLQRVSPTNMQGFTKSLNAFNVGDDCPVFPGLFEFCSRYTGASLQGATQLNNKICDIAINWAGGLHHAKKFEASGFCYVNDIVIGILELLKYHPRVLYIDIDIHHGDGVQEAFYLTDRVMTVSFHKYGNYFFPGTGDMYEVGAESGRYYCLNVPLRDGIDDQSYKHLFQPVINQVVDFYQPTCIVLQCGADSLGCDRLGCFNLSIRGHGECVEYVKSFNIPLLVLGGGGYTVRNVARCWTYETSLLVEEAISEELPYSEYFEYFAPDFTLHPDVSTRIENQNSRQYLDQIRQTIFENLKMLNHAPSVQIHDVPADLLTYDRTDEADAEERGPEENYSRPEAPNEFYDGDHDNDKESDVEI
Sequence of HDAC3 (Q9Y618 395-489 partner limits assumed): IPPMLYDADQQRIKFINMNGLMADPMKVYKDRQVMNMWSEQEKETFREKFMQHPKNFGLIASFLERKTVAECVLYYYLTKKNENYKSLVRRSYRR
Protocol: as §1

Sequence of HDAC2 (Q92769 whole entry): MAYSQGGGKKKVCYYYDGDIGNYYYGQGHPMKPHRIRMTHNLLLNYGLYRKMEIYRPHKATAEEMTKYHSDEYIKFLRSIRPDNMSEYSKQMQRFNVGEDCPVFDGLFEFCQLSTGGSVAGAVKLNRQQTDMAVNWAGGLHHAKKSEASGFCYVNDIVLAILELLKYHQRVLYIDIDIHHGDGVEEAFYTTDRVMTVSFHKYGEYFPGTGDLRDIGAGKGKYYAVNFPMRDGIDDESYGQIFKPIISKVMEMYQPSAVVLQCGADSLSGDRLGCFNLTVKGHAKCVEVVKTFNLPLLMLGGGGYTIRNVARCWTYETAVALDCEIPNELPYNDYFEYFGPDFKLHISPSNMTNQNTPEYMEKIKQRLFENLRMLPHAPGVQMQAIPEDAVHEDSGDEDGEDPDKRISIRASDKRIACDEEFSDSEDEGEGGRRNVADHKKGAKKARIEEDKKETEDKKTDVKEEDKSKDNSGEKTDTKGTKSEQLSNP

Nc1ccccc1NC(=O)c1cnccn1 [Compound 10, N-(2-aminophenyl)pyrazine-2-carboxamide]
caspase-3/PARP cleavage (apoptosis) [1]: induces caspase-dependent apoptosis | MM tumor growth (tumor volume) ([2]; 15 and 50 mg/kg IP 5 days a week for 3 weeks, versus control, day 22 p<0.05 (FIG. 9A)): significantly inhibited MM tumor growth | tumor growth, combination with bortezomib ([2]; Compound 10 50 mg/kg + bortezomib 0.5 mg/kg sc twice a week, p<0.05): further enhanced either single agent activity | acetylation of STAT3 [3]: increased acetylation of STAT3 | p-STAT3 [4]: markedly downregulated p-STAT3 | pIC50 ([5]; Table 2, read-out: HDAC2): 5.83 | pIC50 ([5]; Table 3, read-out: IC50 against the deacetylase activity of HDAC2): 5.66 | growth of patient-derived MM cells [6]: potent growth inhibitory effect | MM cell growth [7]: significantly inhibited MM cell growth in a dose-dependent fashion | pIC50 ([8]; Example 8, read-out: HDAC3 IC50): 6.54 | pIC50 ([8]; Table 2, read-out: HDAC3): 6.86
